# In ChEMBL document CHEMBL6153071, “Discovery of Novel RNA Demethylase FTO Inhibitors Featuring an Acylhydrazone Scaffold with Potent Antileukemia Activity” (J Med Chem, 2025):
# The source made the active and inactive calls. The calls are words filed in the database; no cut-off is given here.
# Key:
# [1] = biological target: T1, Alpha-ketoglutarate-dependent dioxygenase FTO (Homo sapiens, UniProt Q9C0B1); experiment: Induction of thermal stabilization of FTO in human NB4 cells at 40 uM incubated for 6 hrs by CETSA assay; type: cell-based
# [2] = biological target: T1, Alpha-ketoglutarate-dependent dioxygenase FTO; experiment: Inhibition of N-terminal truncated FTO (unknown origin) using ssDNA as substrate at 25 uM incubated for 2 hrs by PAGE-based assay relative to control
# NB-4 [3] = experiment: Induction of apoptosis in human NB4 cells assessed as viable cells at 0.5 uM incubated for 48 hrs by Annexin-V/PI staining based flow cytometry analysis (reference value: 91.2 %); type: functional; conditions: read-out: Activity
# NB-4 [4] = experiment: Induction of apoptosis in human NB4 cells assessed as late apoptotic cells at 0.5 uM incubated for 48 hrs by Annexin-V/PI staining based flow cytometry analysis (reference value: 5.54 %); type: functional
# NB-4 [5] = experiment: Induction of apoptosis in human NB4 cells assessed as necrotic cells at 0.5 uM incubated for 48 hrs by Annexin-V/PI staining based flow cytometry analysis (reference value: 0.77 %); type: functional
# NB-4 [6] = experiment: Induction of apoptosis in human NB4 cells assessed as early apoptotic cells at 1 uM incubated for 48 hrs by Annexin-V/PI staining based flow cytometry analysis (reference value: 2.53 %); type: functional
# NB-4 [7] = experiment: Induction of apoptosis in human NB4 cells assessed as necrotic cells at 1 uM incubated for 48 hrs by Annexin-V/PI staining based flow cytometry analysis (reference value: 0.77 %); type: functional
# NB-4 [8] = experiment: Induction of apoptosis in human NB4 cells assessed as early apoptotic cells at 2 uM incubated for 48 hrs by Annexin-V/PI staining based flow cytometry analysis (reference value: 2.53 %); type: functional
# NB-4 [9] = experiment: Induction of apoptosis in human NB4 cells assessed as late apoptotic cells at 2 uM incubated for 48 hrs by Annexin-V/PI staining based flow cytometry analysis (reference value: 5.54 %); type: functional
# NB-4 [10] = experiment: Induction of apoptosis in human NB4 cells assessed as necrotic cells at 2 uM incubated for 48 hrs by Annexin-V/PI staining based flow cytometry analysis (reference value: 0.77 %); type: functional
# NB-4 [11] = experiment: Induction of apoptosis in human NB4 cells assessed as downregulation of Bcl-2 expression at 2 uM measured after 48 hrs by Western blot analysis; type: functional, cell-based
# [12] = biological target: T1, Alpha-ketoglutarate-dependent dioxygenase FTO; experiment: Induction of thermal stabilization of FTO (unknown origin) assessed as change in melting temperature at 25 to 95 degreeC at 1 : 10 protein : compound molar ratio by fluorescence-based thermal shift assay
# [13] = Toxicity in female BALB/C mouse model xenografted with human NB4 cells assessed as histopathological change in heart at 30 mg/kg, ip administered once daily for 10 days by H and E staining based analysis; type: organism-based; conditions: in vivo, 240 h, time 10 day
# NB-4 [14] = experiment: Anti proliferative activity against in human NB4 cells harbouring wild type FTO assessed as reduction in cell viability at 0.12 to 10 uM incubated for 72 hrs by CCK8 assay; type: functional, cell-based; conditions: dose 0.12-10 µM
# NB-4 [15] = experiment: Anti proliferative activity against in human NB4 cells harbouring FTO knockout assessed as reduction in cell viability at 0.12 to 10 uM incubated for 72 hrs by CCK8 assay; type: functional, cell-based; conditions: dose 0.12-10 µM
# NB-4 [16] = experiment: Downregulation of MYC expression in human NB4 cells at 0.5 to 1 uM incubated for 48 hrs by RT-qPCR analysis; type: functional, cell-based; conditions: dose 0.5-1 µM
# MOLM-13 [17] = experiment: Downregulation of MYC expression in human MOLM-13 cells at 0.5 to 1 uM incubated for 48 hrs by RT-qPCR analysis; type: functional, cell-based; conditions: dose 0.5-1 µM
# [18] = biological target: T1, Alpha-ketoglutarate-dependent dioxygenase FTO; experiment: Inhibition of FTO in human MOLM-13 cells assessed as increase in RARA levels at 0.5 to 1 uM incubated for 48 hrs by Western blot analysis; type: cell-based; conditions: dose 0.5-1 µM
# MOLM-13 [19] = experiment: Downregulation of MYC protein levels in human MOLM-13 cells at 0.5 to 1 uM incubated for 48 hrs by Western blot analysis; type: functional, cell-based; conditions: dose 0.5-1 µM
# [20] = AUC (0 to t) in female BALB/C mouse at 2.5 mg/kg, ip administrated and measured upto 24 hrs by LC-MS/MS; type: ADME, organism-based; conditions: in vivo
# [21] = AUC (0 to infinity) in female BALB/C mouse at 2.5 mg/kg, iv administrated and measured upto 24 hrs by LC-MS/MS; type: ADME, organism-based; conditions: in vivo
# [22] = MRT in female BALB/C mouse at 10 mg/kg, po administrated and measured upto 24 hrs by LC-MS/MS; type: ADME, organism-based; conditions: in vivo
# [23] = MRT in female BALB/C mouse at 2.5 mg/kg, ip administrated and measured upto 24 hrs by LC-MS/MS; type: ADME, organism-based; conditions: in vivo
# [24] = MRT in female BALB/C mouse at 2.5 mg/kg, iv administrated and measured upto 24 hrs by LC-MS/MS; type: ADME, organism-based; conditions: in vivo
# [25] = Half life in female BALB/C mouse at 2.5 mg/kg, ip administrated and measured upto 24 hrs by LC-MS/MS; type: ADME, organism-based; conditions: in vivo
# [26] = Half life in female BALB/C mouse at 2.5 mg/kg, iv administrated and measured upto 24 hrs by LC-MS/MS; type: ADME, organism-based; conditions: in vivo
# [27] = Tmax in female BALB/C mouse at 10 mg/kg, po administrated and measured upto 24 hrs by LC-MS/MS; type: ADME, organism-based; conditions: in vivo
# [28] = Clearance in female BALB/C mouse at 2.5 mg/kg, iv administrated and measured upto 24 hrs by LC-MS/MS; type: ADME, organism-based; conditions: in vivo
# [29] = Volume of distribution at steady state in female BALB/C mouse at 2.5 mg/kg, iv administrated and measured upto 24 hrs by LC-MS/MS; type: ADME, organism-based; conditions: in vivo
# NB-4 [30] = experiment: Antitumor activity against human NB4 cells xenografted in female BALB/C nude mouse model assessed as decrease in tumor volume at 30 mg/kg, ip administered once daily for 10 days; type: functional, organism-based; conditions: time 10.0 day
# [31] = Toxicity in female BALB/C mouse model xenografted with human NB4 cells assessed as change in weight of lung at 30 mg/kg, ip administered once daily for 10 days; type: organism-based; conditions: in vivo, 240 h, time 10 day
# [32] = Toxicity in female BALB/C mouse model xenografted with human NB4 cells assessed as histopathological change in kidney at 30 mg/kg, ip administered once daily for 10 days by H and E staining based analysis; type: organism-based; conditions: in vivo, 240 h, time 10 day
# [33] = Drug distribution in tumor of female BALB/C mouse model xenografted with human NB4 cells at 30 mg/kg, ip administered once daily for 10 days; type: ADME, organism-based, Neoplasm, NB-4; conditions: in vivo, 240 h, time 10 day
# [34] = Toxicity in female BALB/C mouse model xenografted with human NB4 cells assessed as effect on aspartate transaminase level at 30 mg/kg, ip administered once daily for 10 days (reference value: 136.67 +/- 33.71 U/L); type: organism-based; conditions: in vivo, 240 h, time 10 day
# [35] = Toxicity in female BALB/C mouse model xenografted with human NB4 cells assessed as effect on blood urea nitrogen level at 30 mg/kg, ip administered once daily for 10 days (reference value: 26.32 +/- 6.46 mg/dL); type: organism-based; conditions: in vivo, 240 h, time 10 day
# T1 sequence (Q9C0B1 whole entry, looked up, the tested form may be a part): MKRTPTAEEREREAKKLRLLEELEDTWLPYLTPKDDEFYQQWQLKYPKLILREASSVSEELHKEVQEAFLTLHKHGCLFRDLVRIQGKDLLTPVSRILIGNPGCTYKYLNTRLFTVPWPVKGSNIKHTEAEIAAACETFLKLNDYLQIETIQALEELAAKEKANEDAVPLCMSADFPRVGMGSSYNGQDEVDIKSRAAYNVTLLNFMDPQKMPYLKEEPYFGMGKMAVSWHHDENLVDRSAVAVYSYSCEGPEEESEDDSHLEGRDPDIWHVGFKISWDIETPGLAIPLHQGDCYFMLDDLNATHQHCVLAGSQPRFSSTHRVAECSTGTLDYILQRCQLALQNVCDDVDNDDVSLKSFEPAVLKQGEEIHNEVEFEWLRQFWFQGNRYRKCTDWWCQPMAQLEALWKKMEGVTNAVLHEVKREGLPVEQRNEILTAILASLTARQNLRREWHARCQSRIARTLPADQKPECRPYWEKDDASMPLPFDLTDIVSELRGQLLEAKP
smiles,measurement,setting,value
O=C(N/N=C/c1cc(Br)c(O)c(Br)c1O)c1cc2ccccc2cc1O,Activity,[1],Active
same,inhibition,[2],91%
same,viability at 0.5 µM,NB-4 [3],90.4%
same,Activity,NB-4 [4],5.9%
same,Activity,NB-4 [5],1.16%
same,Activity,NB-4 [6],4.66%
same,Activity,NB-4 [7],21.6%
same,Activity,NB-4 [8],7.11%
same,Activity,NB-4 [9],50.5%
same,Activity,NB-4 [10],14.9%
same,Activity,NB-4 [11],Active
same,ΔTm,[12],2 °C
same,Activity,[13],Non-toxic
same,Activity,NB-4 [14],Active
same,Activity,NB-4 [15],Active
same,Activity,NB-4 [16],Active
same,Activity,MOLM-13 [17],Active
same,inhibition,[18],Active
same,Activity,MOLM-13 [19],Active
same,AUC(0-t) at 24 h,[20],1470 ng·h/mL
same,AUC(0-inf),[21],987 ng·h/mL
same,MRT,[22],3.92 h
same,MRT,[23],2.71 h
same,MRT,[24],1.35 h
same,half-life,[25],1.38 h
same,half-life,[26],0.98 h
same,Tmax,[27],1 h
same,clearance,[28],42.2 mL/min/kg
same,Vss/F,[29],3.41 L/kg
same,Activity,NB-4 [30],Active
same,Activity,[31],Non-toxic
same,Activity,[32],Non-toxic
same,Drug uptake,[33],Active
same,Activity,[34],155.67 U/L
same,Activity,[35],24.05 mg/dL
